What was measured:
[1] = Ga(III) complex stability constants by Fe(III)–Ga(III) metal–metal competition, potentiometric and UV–vis pH-metric titrations; type: physicochemical; details: for pGa(III): calculated, pH 7.4; for logβ[GaHL]+: competition UV-Vis titrations; for logβ[GaHL]+ / logβ[GaL]: M:L 1:1, T = 25°C; for logβ[GaHL]+ / logβ[GaL] / pKNHOH (pK of [GaL] formation from [GaHL]+): I = 0.1 M NaClO4; for pKNHOH (pK of [GaL] formation from [GaHL]+): T = 25 °C
Description: The next step was to determine the coordination specificity of investigated ligands toward Ga(III) ions. This is a somewhat challenging task because it requires indirect methods since the investigated complexes started to form in a very acidic environment, where potentiometric measurements were not accurate owing to the error of the glass electrode,[55],[56] and gallium is spectroscopically silent in UV–vis. To bypass this inconvenience, we implemented metal–metal competition assays. After addition of a significant molar excess of Ga(III), the LMCT band of Fe(III)-FOXE analog complexes was almost fully silenced as Ga(III) replaced Fe(III) in its complexes (Figure S5). By implementing those spectral changes, we were able to calculate the stability constants of the Ga(III)-FOXE analog species present below or around pH 2, [GaHL]^+ (Table S8). Stability constants for the [GaL] species, present above pH 2, could be determined by potentiometric titrations for Ga(III)-FOX 2-2, 2-3, 2-4, and 3-5, with logβ of [GaHL]^+ fixed in the calculations (Table S8). For Ga(III)-FOX 2-5, we could not observe any deprotonation step using this methodology. To confirm this behavior, UV–vis titration of the Ga(III)-FOX 2-5 analog complex was performed in the 200–300 nm spectral range (Figure S6) corresponding to the hydroxamate groups’ protonation state.[57]−[59] […] Above pH 4, there were no significant changes in maxima localization or absorbance intensity. Above pH 9, absorbance started to rise again, which indicated complex dissociation. […] Overall, the data indicated a decreased stability of [GaL] species when decreasing or increasing the ring size of Ga(III)-FOX 2-5, as reflected by pKNHOH (Table S8). Implementing this full coordination specification of Ga(III)-FOX complexes, we were able to calculate speciation plots which are presented in Figure 1 for the most efficient analogs FOX 2-4 and FOX 2-5, given here as examples, and in Figure S7 for others.
Proposed biomimetic analogs of cyclic siderophore FOXE bind Fe(III) ions starting from pH around 0, and the complexation is essentially complete far below or around pH of 2. Therefore, the stability constants of the first species formed in solution were determined from the spectrophotometric pH-dependent batch titrations carried out in the pH range of around 0.1–2 (Figure S3), by following the changes in the intense LMCT band of the metal complex. These values were further used as constant values in spectrophotometric or potentiometric titrations carried out in the pH range from 2 to 11 (Figure S3) to get the overall stability constants, logβFeL (Table S5). Since Ga(III)-FOX complexes present similar coordination properties, the first species start to form below pH 2 as well. However, in this case, we have used indirect methods to determine stability constants for Ga(III)-FOXE analogs and the Ga(III) complex with native FOXE, as Ga(III) complexes are spectroscopically silent in the UV–vis region. Metal–metal competition titrations were carried out at pH 1.6 for FOX 2-5 and FOX 2-4 and at pH 2 for the rest of the analogs and the native compound. The intense LMCT band of the Fe(III) complex was silenced after addition of a fixed volume of Ga(III) ions (Figure S5).
Potentiometric titrations were performed using an automatic titrator system Titrando 905 (Metrohm) equipped with a 800 Dosino dosing unit and a microburet with a volume of 2 mL. A combined glass electrode was calibrated each day for hydrogen ion concentration by 0.1 M HClO4 with CO2-free 0.1 M NaOH solutions. A stream of high purity grade argon, presaturated with water vapor, passed over the surface of the solution cell, filled with 3 mL of the studied solution. For each system, a minimum of four independent titrations was performed. […]

[2] = Cyclic voltammetry of Fe(III)-FOXE derivative complexes (redox potential, Fe(II) stability constants); type: physicochemical; details: for E1/2 vs NHE: CV; for E1/2 vs NHE / logβFe(II): [L] = 2 × 10^–3 M, M:L 1:1, pH = 7, T = 25 °C; for E°complex: [Fe(III)] = 2·10^-3 M, M:L ratio 1:1, pH = 7, T = 25°C, I = 0.1M NaClO4, glass-carbon working electrode; for logβFe(II): calculated from CV measurement
Protocol: Redox chemistry of Fe(III) species was determined in cyclic voltammetry (CV) assays. […] We have obtained quasireversible voltammograms for Fe(III)-FOXE analog complexes (Figure S8), with ΔE ranging from −369 mV to −470 mV. The values of E1/2 (Table 1) were recalculated vs normal hydrogen electrode (NHE). To ensure that only fully hexacoordinated complexes [FeL] were characterized, experiments were carried out at fixed pH = 7 where this form is dominating in solution. Higher strength of the complex (larger pM value) correlates to lower redox potential. This behavior was in agreement with previously reported data[61],[62] for similar complexation systems.
Redox potentials for Fe(III)-FOXE derivatives were determined using cyclic voltammetry with a VA 797 Computrace Voltammeter (Metrohm) equipped with glass-carbon, AgCl/Cl, and platinum wire electrodes. Concentration of the measured samples was [Fe(III)] = 2 × 10^–3, M:L ratio 1:1, at 25.0 ± 0.1 °C; pH 7.0 was provided by addition of a suitable amount of NaOH under control of a pH meter. The scan range was from −0.3 V to −1 V in a cycle: Fe(III)–FOX [drawing 1] Fe(II)–FOX [drawing 2] Fe(III)–FOX. Received data (Figure S8) was standardized for the NHE electrode. The electrochemical data were refined to obtain the overall Fe(II)-FOXE derivative binding constant (logβFe(II)L^–) by implementing the Nernst equation (S1).
Figure S8. CV voltammograms used to calculate (logβ) constants for studied complexes a with
Fe(II) ions: a) FOX 2-2, b) Fe-FOX 2-3, c) FOX 2-4, d) FOX 2-5, e) FOX 3-5
aConditions: [Fe(III)] = 2·10^-3 M, M:L ratio 1:1, pH = 7, T = 25°C, I = 0.1M NaClO 4 on glass-carbon working
For each complex the stability constant for Fe(II)-analog was calculated using eq. S10
E complex ― Eaq = ―59.15log (βII) (S10)
Table S9. E 1/2 and stability (logβ) constants for studied complexes with Fe(II) ions a […]

[3] = Ligand–ligand competition UV–vis titrations of Fe(III) complexes vs EDTA; type: physicochemical; details: [L] = 1.5·10^-4 M, M:L ratio 1:1, pH = 7, T = 25°C, I = 0.1 M NaClO4
Protocol: In this series of experiments, the stock solution of FOX ligand was divided into various batches followed by metal addition with a constant total volume of 2 mL, [Fe(III)] = 2 × 10^–4, and a metal-to-ligand molar ratio of 1:1. The EDTA ligand was added to a previously prepared series of solutions in increasing concentration, from a 0 to 10 molar excess for FOX 2-5 and from a 0 to 1.2 molar excess for the rest of the derivatives. pH was adjusted to ∼7 with the NaOH solution. After preparation, each solution was allowed to equilibrate for 3–7 days, depending on the investigated complex. Changes were observed between the collected spectra, and they were measured consequently until no further changes were present. The UV–vis spectra were recorded (Figure S4), and competition data were refined to obtain the overall Fe(III)-FOXE derivative binding constant (logβFe(III)L). The protonation constants of FOXE derivatives (Table S4) and formation constants for Fe(III)-FOXE derivative complex species (Table S5) were treated as fixed parameters in data analysis.
The spectrophotometric competition experiments with EDTA
The spectrophotometric competition experiments with EDTA were performed at fixed pH 7.0,
to compete effectively with the tris-hydroxamates for ferric ion at intermediate pH values (5-8)
if an excess of EDTA is used. The competition equilibrium is described by equations (S5) and
Fe IIIL  EDTA K  FeIII EDTA  L (S5)
[FeIII L][EDTA]  Fe(III)L (S6)
The competition data were refined to obtain the overall Fe(III)-FOX binding constant logβ FeL
(Table S7) for analogs using a model involving two ligands and one metal.
The concentration of Fe(III)-analog complex for each derivative, [FeL], was calculated from
the absorbance maximum at around 420 nm (where FeL is the only light-absorbing species) and
previously determined extinction coefficients. The concentrations of other species in equation
(S6) were calculated from mass balance equations using the experimental pH values:
[Fe]tot =  FeL[FeL] +  FeEDTA[FeEDTA]
[L]tot =  FeL[FeL] +  L[L]
[EDTA]tot =  FeEDTA[FeEDTA] +  EDTA[EDTA]
a is the usual Ringbom’s coefficient.

[4] = Fe(III) complex stability constants by potentiometric and pH-dependent UV–vis titrations; type: physicochemical; details: I = 0.1 M NaClO4; for logβ[FeHL]+ / logβ[FeL] / pKNHOH of Fe(III) complex: M:L 1:1, T = 25°C; for logβFe(III)L: potentiometric [L] = 1 × 10^–3 M and UV–vis 5 × 10^–5 M, M:L 1:1, T = 25 °C
[5] = Distribution coefficient (logD) of ^68Ga-labeled ligands between octanol and PBS
[6] = potentiometric, [L] = 1·10^-3 M
[7] = UV-Vis pH-dependent titrations, 1·10^-4 M

| pGa(III) [1] | logβ[GaHL]+ ([1]; [L] = 1·10^-4 M) | logβ[GaL] [1, 6] | E1/2 vs NHE [2] | E°complex [2] [mV] | logβFe(II) [2] | logβ[FeL] [3] | logβ[FeHL]+ [4, 7] | logβFe(III)L [4] | logβ[FeL] [4, 6] | pKNHOH of Fe(III) complex [4, 6] | logD at 20 min [5] | pKNHOH (pK of [GaL] formation from [GaHL]+) [1] | logβ[FeL] [4, 7] | pKNHOH of Fe(III) complex [4, 7] | logβ[GaL] ([1]; UV-Vis (metal–metal competition) titrations, [L] = 1·10^-4 M) | Structure (SMILES) |
| --- | --- | --- | --- | --- | --- | --- | --- | --- | --- | --- | --- | --- | --- | --- | --- | --- |
| 21.4 | 28.48 (4) | 26.52 (5) | –369 mv | -369 | 7.48 | 26.57 (4) | 30.64 (6) | 25.92(8) | 25.92 (8) | 4.72 | -2.66 | – | – | – | – | O=C1CCN(O)C(=O)CCNC(=O)CCN(O)C(=O)CCNC(=O)CCN(O)C(=O)CCN1 [FOX 2-2] |
| 20.8 | 28.30 (4) | 26.02 (1) | –432 mv | -432 | 7.54 | 26.55 (3) | 30.44 (5) | 27.22(2) | 27.22 (2) | 3.22 | -2.96 | 2.28 | 26.70 (9) | 3.74 | – | O=C1CCCN(O)C(=O)CCNC(=O)CCCN(O)C(=O)CCNC(=O)CCCN(O)C(=O)CCN1 [FOX 2-3] |
| 25.2 | – | – | –452 mv | -452 | 11.29 | 28.81 (1) | – | – | – | – | -1.9 | – | 31.32 (8) | – | 29.52 (6) | O=C1CCCCCN(O)C(=O)CCNC(=O)CCCCCN(O)C(=O)CCNC(=O)CCCCCN(O)C(=O)CCN1 [FOX 2-5] |
| 22.6 | 29.45 (1) | 26.58 (4) | –416 mv | -416 | 8.48 | 28.38 (1) | – | – | 28.81 (1) | 2.32 | -1.57 | 2.87 | 28.59 (3) | 2.54 | – | O=C1CCCCCN(O)C(=O)CCCNC(=O)CCCCCN(O)C(=O)CCCNC(=O)CCCCCN(O)C(=O)CCCN1 [FOX 3-5] |
| 21.8 | 28.84 (5) | 26.28 (1) | –426 mv | -426 | 9.12 | 27.13 (1) | 30.83 (4) | 28.71(7) | – | – | -3.02 | 2.56 | 28.71 (7) | 2.12 | – | O=C1CCCCN(O)C(=O)CCNC(=O)CCCCN(O)C(=O)CCNC(=O)CCCCN(O)C(=O)CCN1 [FOX 2-4] |

From article PMC8653149, “Cyclic Analogs of Desferrioxamine E Siderophore for ^68Ga Nuclear Imaging: Coordination Chemistry and Biological Activity in Staphylococcus aureus” (Inorganic Chemistry, 2021)
